Data on 26 compounds can be found in patent US10081631B2, “2-(1H-indazol-3-yl)-1H-imidazo[4,5-C]pyridine and therapeutic uses thereof” (Samumed, LLC, priority 2014, dated 2018).

For assay [1], the system named is Wnt activity (Sp5-Luc reporter, SW480 colon carcinoma cells). Nature of the assay: Screening assay for Wnt activity: Sp5-Luc reporter gene assay in SW480 cells. The settings on record: Homo sapiens, 42 h incubation, luminescence. Type of assay: cell-based. An outline of the steps:
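IC50 values come from variable-slope four-parameter fits of luciferase signal normalized to DMSO wells. Stable Sp5-Luc reporter SW480 colon carcinoma cells were exposed to compounds in a 3-fold dilution series (source plates from 10 mM stock) for forty-two hours at 37 °C.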
Background: A reporter such as luciferase makes a cellular process visible.

The test system of assay [2] is primary human fibroblasts derived from IPF patients (LL29 cells). Nature of the assay: Inhibition of fibrosis: TGF-β1-treated primary human fibroblasts from IPF patients (LL29), αSMA staining. Format: cell-based. The settings on record: Fibroblast, 96 h, TGF-β1 20 ng/mL, 4 days, % αSMA-positive cells. An outline of the steps:
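[…] (0.1% DMSO) on LL29 cells in F12 with 1% FBS, with TGF-β1 (20 ng/mL) added 1 h after plating; 4 days at 37 °C. SYTOX-positive dead cells were excluded and the % αSMA-positive cells was imaged, normalized to TGF-β1/DMSO wells, triplicates; EC50 by non-linear regression.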

The IC50 is the concentration that gives 50% inhibition. A lower IC50 goes with greater potency. By EC50 is commonly meant the concentration at which the effect is half-maximal. Regarding `CC(C)Nc1cncc(-c2ccc3[nH]nc(-c4nc5c(-c6cc(F)cc(NCCN(C)C)c6)nccc5[nH]4)c3c2)c1` [Compound 428, N^1-(3-Fluoro-5-(2-(5-(5-(isopropylamino)pyridin-3-yl)-1H-indazol-3-yl)-1H-imidazo[4,5-c]pyridin-4-yl)phenyl)-N^2,N^2-dimethylethane-1,2-diamine], it took 6 nM to reach half-maximal inhibition in assay [1] (IC50). Besides, the EC50 in assay [2] worked out at 9 nM.

`CN(C)CCOc1cncc(-c2ccc3[nH]nc(-c4nc5c(-c6cccc(F)c6)nccc5[nH]4)c3c2)c1` [Compound 1779, 2-((5-(3-(4-(3-Fluorophenyl)-1H-imidazo[4,5-c]pyridin-2-yl)-1H-indazol-5-yl)pyridin-3-yl)oxy)-N,N-dimethylethan-1-amine] displayed a half-inhibitory concentration (IC50) in assay [1] of 192 nM. The compound also showed an EC50 in assay [2] of 41 nM.

In assay [1], `COc1cncc(-c2ccc3[nH]nc(-c4nc5c(-c6cccc(F)c6)nccc5[nH]4)c3c2)c1` [Compound 1780, 4-(3-Fluorophenyl)-2-(5-(5-methoxypyridin-3-yl)-1H-indazol-3-yl)-1H-imidazo[4,5-c]pyridine] had a half-maximal inhibitory concentration (IC50) of 25 nM. Also, a half-maximal response in assay [2] (EC50) required 19 nM.

In turn, `CC(C)C(=O)Nc1cncc(-c2ccc3[nH]nc(-c4nc5c(-c6cccnc6)nccc5[nH]4)c3c2)c1` [Compound 87, N-(5-(3-(4-(Pyridin-3-yl)-1H-imidazo[4,5-c]pyridin-2-yl)-1H-indazol-5-yl)pyridin-3-yl)isobutyramide] returned an IC50 in assay [1] of 3 nM. Besides, in assay [2], a half-maximal response (EC50) required 295 nM.

`CN(C)Cc1cncc(-c2ccc3[nH]nc(-c4nc5c(-c6cccs6)nccc5[nH]4)c3c2)c1` [Compound 299, N,N-Dimethyl-1-(5-(3-(4-(thiophen-2-yl)-1H-imidazo[4,5-c]pyridin-2-yl)-1H-indazol-5-yl)pyridin-3-yl)methanamine] registered a half-maximal inhibitory concentration (IC50) in assay [1] of 332 nM. Further, the EC50 in assay [2] turned out to be 608 nM.

On to `Fc1cccc(-c2nccc3[nH]c(-c4n[nH]c5ccc(-c6cnccn6)cc45)nc23)c1` [Compound 1786, 4-(3-Fluorophenyl)-2-(5-(pyrazin-2-yl)-1H-indazol-3-yl)-1H-imidazo[4,5-c]pyridine], for which it took 35 nM to reach half-maximal inhibition in assay [1] (IC50). In assay [2], this compound showed an EC50 of 9 nM.

`CS(=O)(=O)NCc1cc(F)cc(-c2nccc3[nH]c(-c4n[nH]c5ccc(-c6cncnc6)cc45)nc23)c1` [Compound 416, N-(3-Fluoro-5-(2-(5-(pyrimidin-5-yl)-1H-indazol-3-yl)-1H-imidazo[4,5-c]pyridin-4-yl)benzyl)methanesulfonamide] registered a concentration for half-maximal inhibition (IC50) in assay [1] below 1 nM. In addition, the concentration giving a half-maximal response (EC50) in assay [2] stood at 27 nM.

`CN(C)c1cncc(-c2ccc3[nH]nc(-c4nc5c(-c6cccs6)nccc5[nH]4)c3c2)c1` [Compound 293, N,N-Dimethyl-5-(3-(4-(thiophen-2-yl)-1H-imidazo[4,5-c]pyridin-2-yl)-1H-indazol-5-yl)pyridin-3-amine] yielded an IC50 in assay [1] of 9 nM. In assay [2], this compound registered an EC50 of 36 nM.

As to `CCCCC(=O)Nc1cncc(-c2ccc3[nH]nc(-c4nc5c(-c6ccoc6)nccc5[nH]4)c3c2)c1` [Compound 278, N-(5-(3-(4-(Furan-3-yl)-1H-imidazo[4,5-c]pyridin-2-yl)-1H-indazol-5-yl)pyridin-3-yl)pentanamide], half-maximal inhibition in assay [1] (IC50) required 15 nM. The compound further gave an EC50 in assay [2] of 291 nM.

In the case of `Cc1cn(-c2nccc3[nH]c(-c4n[nH]c5ccc(-c6cncc(NC(=O)C(C)(C)C)c6)cc45)nc23)cn1` [Compound 190, N-(5-(3-(4-(4-Methyl-1H-imidazol-1-yl)-1H-imidazo[4,5-c]pyridin-2-yl)-1H-indazol-5-yl)pyridin-3-yl)pivalamide], the half-maximal inhibitory concentration (IC50) in assay [1] came to 5 nM. Besides, in assay [2], it took 50 nM to reach a half-maximal effect (EC50).

Consider `CCCC(=O)Nc1cncc(-c2ccc3[nH]nc(-c4nc5c(-c6cc(F)cc(CNS(C)(=O)=O)c6)nccc5[nH]4)c3c2)c1` [Compound 407, N-(5-(3-(4-(3-Fluoro-5-(methylsulfonamidomethyl)phenyl)-1H-imidazo[4,5-c]pyridin-2-yl)-1H-indazol-5-yl)pyridin-3-yl)butyramide], for which, in assay [1], the IC50 stood at 24 nM. For the same compound, the 50% effective concentration (EC50) in assay [2] was 19 nM.

`CCCC(=O)Nc1cncc(-c2ccc3[nH]nc(-c4nc5c(-c6ccccc6F)nccc5[nH]4)c3c2)c1` [Compound 69, N-(5-(3-(4-(2-Fluorophenyl)-1H-imidazo[4,5-c]pyridin-2-yl)-1H-indazol-5-yl)pyridin-3-yl)butyramide] gave an IC50 in assay [1] of 5 nM. Further, the midpoint of the response in assay [2], the EC50, lay at 74 nM.

The compound `O=C(Nc1cncc(-c2ccc3[nH]nc(-c4nc5c(N6CCCCC6)nccc5[nH]4)c3c2)c1)C1CC1` [Compound 175, N-(5-(3-(4-(Piperidin-1-yl)-1H-imidazo[4,5-c]pyridin-2-yl)-1H-indazol-5-yl)pyridin-3-yl)cyclopropanecarboxamide] showed an IC50 in assay [1] of 278 nM. In assay [2], this compound yielded an EC50 of 115 nM.

Turning to `CN(C)CCNc1cc(F)cc(-c2nccc3[nH]c(-c4n[nH]c5ccc(-c6cncc(CNCC7CCCC7)c6)cc45)nc23)c1` [Compound 440, N^1-(3-(2-(5-(5-(((Cyclopentylmethyl)amino)methyl)pyridin-3-yl)-1H-indazol-3-yl)-1H-imidazo[4,5-c]pyridin-4-yl)-5-fluorophenyl)-N^2,N^2-dimethylethane-1,2-diamine], in assay [1], the IC50 is 539 nM. The 50% effective concentration (EC50) in assay [2] was found to be 9 nM.

In turn, `c1cncc(-c2nccc3[nH]c(-c4n[nH]c5ccc(-c6cncc(CN7CCCCC7)c6)cc45)nc23)c1` [Compound 93, 2-(5-(5-(Piperidin-1-ylmethyl)pyridin-3-yl)-1H-indazol-3-yl)-4-(pyridin-3-yl)-1H-imidazo[4,5-c]pyridine] had an IC50 in assay [1] of 318 nM. For the same compound, the EC50 in assay [2] worked out at 388 nM.

`Fc1cccc(-c2nccc3[nH]c(-c4n[nH]c5ccc(-c6ccccn6)cc45)nc23)c1` [Compound 1785, 4-(3-Fluorophenyl)-2-(5-(pyridin-2-yl)-1H-indazol-3-yl)-1H-imidazo[4,5-c]pyridine]: inhibition in assay [1] was half-maximal at 633 nM (IC50). In assay [2], this compound gave a 50% effective concentration (EC50) of 9 nM.

In turn, `CC(C)C(=O)Nc1cncc(-c2ccc3[nH]nc(-c4nc5c(-c6ccccc6F)nccc5[nH]4)c3c2)c1` [Compound 61, N-(5-(3-(4-(2-Fluorophenyl)-1H-imidazo[4,5-c]pyridin-2-yl)-1H-indazol-5-yl)pyridin-3-yl)isobutyramide] returned an IC50 in assay [1] of 5 nM. The compound further displayed an EC50 in assay [2] of 79 nM.

With `FC1(F)CCN(Cc2cncc(-c3ccc4[nH]nc(-c5nc6c(N7CCCCC7)nccc6[nH]5)c4c3)c2)C1` [Compound 181, 2-(5-(5-((3,3-Difluoropyrrolidin-1-yl)methyl)pyridin-3-yl)-1H-indazol-3-yl)-4-(piperidin-1-yl)-1H-imidazo[4,5-c]pyridine], it took 67 nM to reach half-maximal inhibition in assay [1] (IC50). For the same compound, in assay [2], the 50% effective concentration (EC50) stood at 80.5 nM.

Regarding `CC(C)(C)C(=O)Nc1cncc(-c2ccc3[nH]nc(-c4nc5c(-c6ccc(F)cc6)nccc5[nH]4)c3c2)c1` [Compound 34, N-(5-(3-(4-(4-fluorophenyl)-1H-imidazo[4,5-c]pyridin-2-yl)-1H-indazol-5-yl)pyridin-3-yl)pivalamide], in assay [1], it took 13 nM to reach half-maximal inhibition (IC50). Besides, it took 9 nM to reach a half-maximal effect in assay [2] (EC50).

Consider `O=C(Nc1cncc(-c2ccc3[nH]nc(-c4nc5c(-c6ccoc6)nccc5[nH]4)c3c2)c1)C1CCC1` [Compound 280, N-(5-(3-(4-(Furan-3-yl)-1H-imidazo[4,5-c]pyridin-2-yl)-1H-indazol-5-yl)pyridin-3-yl)cyclobutanecarboxamide], for which, in assay [1], the IC50 was 27.9 nM. Also, the EC50 in assay [2] turned out to be 1240 nM.

The compound `Oc1cncc(-c2ccc3[nH]nc(-c4nc5c(-c6cccc(F)c6)nccc5[nH]4)c3c2)c1` [Compound 1781, 5-(3-(4-(3-Fluorophenyl)-1H-imidazo[4,5-c]pyridin-2-yl)-1H-indazol-5-yl)pyridin-3-ol] came in with an IC50 in assay [1] of 6 nM. For the same compound, the EC50 in assay [2] was 79 nM.

In the case of `O=C(Cc1ccccc1)Nc1cncc(-c2ccc3[nH]nc(-c4nc5c(-c6ccsc6)nccc5[nH]4)c3c2)c1` [Compound 244, 2-Phenyl-N-(5-(3-(4-(thiophen-3-yl)-1H-imidazo[4,5-c]pyridin-2-yl)-1H-indazol-5-yl)pyridin-3-yl)acetamide], the IC50 in assay [1] is 69.1 nM. A half-maximal response in assay [2] (EC50) required 203 nM.

In the case of `Cc1ccc(-c2nccc3[nH]c(-c4n[nH]c5ccc(-c6cncc(NC(=O)C(C)C)c6)cc45)nc23)s1` [Compound 347, N-(5-(3-(4-(5-Methylthiophen-2-yl)-1H-imidazo[4,5-c]pyridin-2-yl)-1H-indazol-5-yl)pyridin-3-yl)isobutyramide], the IC50 in assay [1] is 7 nM. In addition, a half-maximal response in assay [2] (EC50) required 38 nM.

In turn, `CCCCC(=O)Nc1cncc(-c2ccc3[nH]nc(-c4nc5c(-c6cc(F)cc(NCCN(C)C)c6)nccc5[nH]4)c3c2)c1` [Compound 434, N-(5-(3-(4-(3-((2-(Dimethylamino)ethyl)amino)-5-fluorophenyl)-1H-imidazo[4,5-c]pyridin-2-yl)-1H-indazol-5-yl)pyridin-3-yl)pentanamide] showed an IC50 in assay [1] of 16 nM. The compound further gave a concentration for a half-maximal effect (EC50) in assay [2] of 459 nM.

In assay [1], `O=C(Nc1cncc(-c2ccc3[nH]nc(-c4nc5c(-c6ccsc6)nccc5[nH]4)c3c2)c1)c1ccccc1` [Compound 245, N-(5-(3-(4-(Thiophen-3-yl)-1H-imidazo[4,5-c]pyridin-2-yl)-1H-indazol-5-yl)pyridin-3-yl)benzamide] had an IC50 of 40 nM. Besides, the 50% effective concentration (EC50) in assay [2] came to 17 nM.

In assay [1], `O=C(Nc1cncc(-c2ccc3[nH]nc(-c4nc5c(-c6ccncc6)nccc5[nH]4)c3c2)c1)C1CCCCC1` [Compound 126, N-(5-(3-(4-(Pyridin-4-yl)-1H-imidazo[4,5-c]pyridin-2-yl)-1H-indazol-5-yl)pyridin-3-yl)cyclohexanecarboxamide] returned an IC50 of 1190 nM. For the same compound, the concentration giving a half-maximal response (EC50) in assay [2] is 9990 nM.
